# Assay results taken from PMC7434514 (ChemMedChem, 2020).
# Values joined by “and” are separate entries in the source; they are usually repeats but may differ in a detail not shown here. Equal entries are not always repeated.
# Tests used:
# [1] = test system: NDM-1 expressing Klebsiella pneumoniae; details: mouse infected with NDM-1 expressing Klebsiella pneumoniae; ref 19e, 20; cited from earlier work
# NDM-1 [2] = details: read-out: IC50 against NDM-1; ref 19e, 20; cited from earlier work
# NDM-1 [3] = target: T1, NDM-1 (Klebsiella pneumoniae, UniProt C7C422); type: binding; details: NDM-1 10 μM, inhibitor 50 μM, approximately 5 min incubation
# Target sequence in this assay (C7C422 37-270 limits assumed): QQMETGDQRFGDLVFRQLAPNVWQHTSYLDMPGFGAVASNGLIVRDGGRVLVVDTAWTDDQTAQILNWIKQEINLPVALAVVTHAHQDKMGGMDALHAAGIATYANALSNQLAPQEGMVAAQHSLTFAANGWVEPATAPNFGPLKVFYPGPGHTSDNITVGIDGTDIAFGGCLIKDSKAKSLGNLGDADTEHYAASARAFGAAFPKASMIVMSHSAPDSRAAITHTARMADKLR
# NDM-1 [4] = target: T1, NDM-1; type: binding; details: 5 μM NDM-1, 200 μM inhibitor; native NDM-1 TM = 55.95±0.06 °C
# Target sequence in this assay (C7C422 29-270, looked up): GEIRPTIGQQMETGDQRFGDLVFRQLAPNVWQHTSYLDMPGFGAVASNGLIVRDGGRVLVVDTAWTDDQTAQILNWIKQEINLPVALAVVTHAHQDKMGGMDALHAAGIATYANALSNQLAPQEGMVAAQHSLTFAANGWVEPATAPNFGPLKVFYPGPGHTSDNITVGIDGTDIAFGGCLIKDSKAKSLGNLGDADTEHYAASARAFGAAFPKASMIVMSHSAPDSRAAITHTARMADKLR
# VIM-2 = VIM-2 (Escherichia coli, UniProt Q5U7L7); type: binding; details: VIM-2 10 μM, inhibitor 50 μM, approximately 5 min incubation
# NDM-1 [5] = target: T1, NDM-1; assay: biochemical; details: for Percent Inhibition against NDM-1: meropenem substrate
# Target sequence in this assay (C7C422 36-270): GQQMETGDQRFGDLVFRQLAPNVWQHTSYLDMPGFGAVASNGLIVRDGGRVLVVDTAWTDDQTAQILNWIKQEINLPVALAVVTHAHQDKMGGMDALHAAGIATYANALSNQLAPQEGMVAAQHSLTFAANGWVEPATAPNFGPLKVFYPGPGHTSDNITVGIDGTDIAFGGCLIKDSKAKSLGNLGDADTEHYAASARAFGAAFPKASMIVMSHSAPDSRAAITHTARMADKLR
# [6] = read-out: Kd for Zn(II) ions; cited from earlier work
# [7] = read-out: Percent Inhibition against NDM-1
structure (smiles),measurement,setting,value
"N[C@H](CN[C@H](CN[C@@H](CC(=O)O)C(=O)O)C(=O)O)C(=O)O [AMA, Aspergillomarasmine A]",ability to restore meropenem activity in vivo,[1],restore meropenem activity
same,IC50,NDM-1 [2],4 to 7 µM
CN(CC(=O)O)CC(=O)O [Compound 1],Complex observed by native ESI-MS,NDM-1 [3],2Zn: NDM-1:1
same,∆Tm,NDM-1 [4],1.9±0.2 °C
same,Complex observed by native ESI-MS,VIM-2,2Zn: VIM-2:1
same,Percent Inhibition against NDM-1,NDM-1 [5]; compound at 200 μM,80%
same,Percent Inhibition against NDM-1,NDM-1 [5]; compound at 250 μM,90%
O=C(O)CN(CC(=O)O)Cc1ccccc1 [Compound 11],Percent Inhibition against NDM-1,NDM-1 [5]; compound at 250 μM,65%
"CN(CCC(=O)O)CC(=O)O [Compound 13a, 3-((Carboxymethyl)(methyl)amino)propanoic acid]",Percent Inhibition against NDM-1,NDM-1 [5]; compound at 250 μM,complete loss of activity
"O=C(O)CCN(CC(=O)O)Cc1ccccc1 [Compound 13b, 3-(Benzyl(carboxymethyl)amino)propanoic acid]",Percent Inhibition against NDM-1,NDM-1 [5]; compound at 250 μM,complete loss of activity
"O=C(O)CN(CCP(=O)(O)O)Cc1ccccc1 [Compound 15, N-Benzyl-N-(2-phosphonoethyl)glycine]",Percent Inhibition against NDM-1,NDM-1 [5]; compound at 250 μM,no inhibition
"O=C(O)CN(Cc1ccccc1)Cc1nnn[nH]1 [Compound 17, N-((1H-tetrazol-5-yl)methyl)-N-benzylglycine]",Percent Inhibition against NDM-1,NDM-1 [5]; compound at 250 μM,comparable to that of 11
"O=C(O)CN(CCc1ccccc1)CC(=O)O [Compound 21a, 2,2’-(Phenethylazanediyl)diacetic acid]",inhibition at 250 µM,NDM-1 [5]; [7],56 to 76%
"O=C(O)CN(CC(=O)O)Cc1ccc(-c2ccccc2)cc1 [Compound 21b, 2,2’-(([1,1’-Biphenyl]-4-ylmethyl)azanediyl)diacetic acid]",inhibition at 250 µM,NDM-1 [5]; [7],56 to 76%
"O=C(O)CN(CC(=O)O)Cc1cccc(-c2ccccc2)c1 [Compound 21c, 2,2’-(([1,1’-Biphenyl]-3-ylmethyl)azanediyl)diacetic acid]",inhibition at 250 µM,NDM-1 [5]; [7],56 to 76%
"O=C(O)CN(CC(=O)O)Cc1ccsc1 [Compound 21h, 2,2’-((Thiophen-3-ylmethyl)azanediyl)diacetic acid]",inhibition at 250 µM,NDM-1 [5]; [7],64%
"O=C(O)CN(CC(=O)O)Cc1ccoc1 [Compound 21i, 2,2’-((Furan-3-ylmethyl)azanediyl)diacetic acid]",∆Tm,NDM-1 [4],3.4±0.3 °C
same,inhibition at 250 µM,NDM-1 [5]; [7],~99%
"O=C(O)CN(CC(=O)O)S(=O)(=O)c1ccccc1 [Compound 21j, 2,2’-((Phenylsulfonyl)azanediyl)diacetic acid]",Percent Inhibition against NDM-1,NDM-1 [5]; compound at 250 μM,complete loss of activity
"O=C(O)CN(CC(=O)O)S(=O)(=O)Cc1ccccc1 [Compound 21k, 2,2’-((Benzylsulfonyl)azanediyl)diacetic acid]",Percent Inhibition against NDM-1,NDM-1 [5]; compound at 250 μM,complete loss of activity
"O=C(O)CN(CC(=O)O)S(=O)(=O)c1cccs1 [Compound 21l, 2,2’-((Thiophen-2-ylsulfonyl)azanediyl)diacetic acid]",Percent Inhibition against NDM-1,NDM-1 [5]; compound at 250 μM,~ 20%
"O=C(O)CN(CC(=O)O)S(=O)(=O)c1cc2ccccc2s1 [Compound 21m, 2,2’-((Benzo[b]thiophen-2-ylsulfonyl)azanediyl)diacetic acid]",Percent Inhibition against NDM-1,NDM-1 [5]; compound at 250 μM,~ 20%
"O=C(O)CN(CC(=O)O)Cc1cccs1 [Compound 23a, 2,2’-((Thiophen-2-ylmethyl)azanediyl)diacetic acid]",∆Tm,NDM-1 [4],3.1±0.1 °C
"O=C(O)CN(CC(=O)O)Cc1ccco1 [Compound 23b, 2,2’-((Furan-2-ylmethyl)azanediyl)diacetic acid]",∆Tm,NDM-1 [4],1.6±0.4 °C
"Cc1ccc(CN(CC(=O)O)CC(=O)O)s1 [Compound 23c, 2,2’-(((5-Methylthiophen-2-yl)methyl)azanediyl)diacetic acid]",Complex observed by native ESI-MS,NDM-1 [3],2Zn: NDM-1:23c
same,Complex observed by native ESI-MS,VIM-2,2Zn: VIM-2:23c
"Cc1ccc(CN(CC(=O)O)CC(=O)O)o1 [Compound 23d, 2,2’-(((5-Methylfuran-2-yl)methyl)azanediyl)diacetic acid]",Complex observed by native ESI-MS,NDM-1 [3],2Zn: NDM-1:23d
same,∆Tm,NDM-1 [4],3.4±0.2 °C
same,Complex observed by native ESI-MS,VIM-2,2Zn: VIM-2:23d
"O=C(O)CN(CCc1cccs1)CC(=O)O [Compound 23e, 2,2’-((2-(Thiophen-2-yl)ethyl)azanediyl)diacetic acid]",Complex observed by native ESI-MS,NDM-1 [3],2Zn: NDM-1:23e
same,∆Tm,NDM-1 [4],1.7±0.2 °C
same,Complex observed by native ESI-MS,VIM-2,2Zn: VIM-2:23e
"O=C(O)CN(CCc1ccco1)CC(=O)O [Compound 23f, 2,2’-((2-(Furan-2-yl)ethyl)azanediyl)diacetic acid]",Complex observed by native ESI-MS,NDM-1 [3],2Zn: NDM-1:23f
same,∆Tm,NDM-1 [4],1.5±0.1 °C
same,Complex observed by native ESI-MS,VIM-2,2Zn: VIM-2:23f
same,Ki,NDM-1 [5],2.6 µM
same,fold improvement in inhibitory activity,NDM-1 [5]; ethyl-linker (23f) versus methyl-linker (23b),2.5 fold
"O=C(O)CN(CC(=O)O)Cc1ccc(Br)s1 [Compound 23g, 2,2’-(((5-Bromothiophen-2-yl)methyl)azanediyl)diacetic acid]",∆Tm,NDM-1 [4],3.0±0.3 °C
"O=C(O)c1cccc(C(=O)O)n1 [DPA, dipicolinic acid, reference compound]",Complex observed by native ESI-MS,NDM-1 [3],0Zn: NDM-1 and 1Zn: NDM-1 and 2Zn: NDM-1
same,∆Tm,NDM-1 [4],−14.5±0.2 °C
same,Complex observed by native ESI-MS,VIM-2,0Zn: VIM-2:DPA
"O=C(O)CN(CCN(CC(=O)O)CC(=O)O)CC(=O)O [EDTA, reference compound]",Complex observed by native ESI-MS,NDM-1 [3],metal free NDM-1
"O=C(O)CNCC(=O)O [IDA, Iminodiacetic acid]",Kd,[6],32 µM
same,inhibition at 200 µM,NDM-1 [5]; [7],48%
